Test results from patent US20170304359A1, “ORAL IODINE DOSAGE FORM” (priority 2016, published 2017).

Assays:
[1] = Aceves et al. 2013; cited from earlier work
[2] = Aceves et al. 2013; cited from earlier work; remark: listed apart in the source
[3] = system: MCF7, MDA-MB231, MCF10A, and primary cells; assay type: cell-based, human
[4] = system: breast cancer and fibrocystic cell lines; test: qRT-PCR gene expression analysis; assay type: cell-based, human; settings: molecular iodine treatment
Protocol: An in vitro study was performed to assess the effect of molecular iodine in breast cancer and fibrocystic breast cell lines relative to the effects in human mammary epithelial cells (HMEC)(“primary cells”). The study measured gene expression for key markers in each of the cell lines following in vitro addition to the cells of cell media mixtures that comprised iodine species.
As mentioned in the previous paragraph, each of the four cell lines described in the previous paragraph was added to a sample of each of the six cell media mixtures CM1 to CM6. As an untreated control, one sample for each cell line was mixed with media only. Real-time reverse transcription polymerase chain reaction (qRT-PCR) was used to measure several key mRNA markers for apoptosis and cell growth in breast tissue for each combination of cell line and cell media mixture. The measured markers for cell growth were Cyclin D1, Cyclin E1, Cyclin B1, CDK2, and CDKN1B. The measured markers for apoptosis were BCL2 and Caspase 3. Cyclin D1 is required for progression through the G1 phase of the cell cycle. Cyclin E1 is required for cell cycle G1/S transition. Cyclin B1 is involved in the early events of mitosis, such as chromosome condensation, nuclear envelop breakdown, and spindle pole assembly. CDK2 is required for the transition from G1 to S phase and binding with Cyclin A is required to progress through the S phase. CDKN1B binds to and prevents the activation of cyclin E-CDK2 or Cyclin D-CDK4 complexes, and thus controls the cell cycle progression at G1. BCL2 plays an important role in promoting cellular survival and inhibiting the actions of pro-apoptotic proteins. Caspase 3 plays a central role in the execution phase of cell apoptosis. […] Table 4 presents the data normalized to the corresponding data for the primary cells when added to CM6.
BCL-2, an inhibitor of cell death, was increased, while expression of caspase-3 was decreased.

[5] = system: fibrocystic breast condition; settings: about 3 to about 12 mg of molecular iodine per day; clinical trials (Kessler 2004; Ghent 1993); cited from earlier work

Compound	uptake difference between molecular iodine and iodide in the breast [1]	difference in uptake in the thyroid between molecular iodine and iodide [2]	susceptibility of breast cancer cell lines compared to primary cells (cell death) ([3]; 24 hours, FIG. 3)	effects on cell growth in both breast cancer and FBC [4]	BCL-2 expression ([4]; quantitative RT-PCR)	Cyclin B expression levels ([4]; quantitative RT-PCR)	expression of caspase-3 ([4]; quantitative RT-PCR)	expression of cell cycle genes controlling G1-S phase transition ([4]; quantitative RT-PCR)	expression of nuclear hormone receptor PPAR-α ([4]; quantitative RT-PCR)	expression of nuclear hormone receptor PPAR-γ ([4]; quantitative RT-PCR)	treatment of fibrocystic breast condition [5]	selectivity for apoptosis and cell proliferation between cancerous or fibrocystic cells and healthy human mammary epithelial cells [3]
II [molecular iodine]	small uptake difference	3-4 fold	more susceptible	potent inhibitory effects	increased	No significant changes	decreased	largely up-regulated	up-regulated	up-regulated	effective	
[I-].[K+] [CM3, potassium iodide, reference compound]												not present
